Source: ChEMBL document CHEMBL1148974, “New eudesmane derivatives from Melampodium camphoratum from the Suriname rainforest” (J Nat Prod, 2004)
Converted amounts (≈) assume the structure as drawn.

What follows are compounds tested on Plasmodium falciparum (assay: Antimalarial activity as reduced heme degradation in Plasmodium falciparum infected human erythrocytes).
Type: functional, organism-based
`C=C[C@H]1CN2CC[C@H]1C[C@H]2[C@H](O)c1ccnc2ccc(OC)cc12` [QUININE] showed a DC50 of 1.3 µg/mL (≈ 4.01 µM). Compound `C=C1CCC[C@]2(C)CC[C@@H](C(C)C)[C@H](OC(=O)/C=C/c3ccc(OC(=O)CCCCCCCCCCCCCCC)cc3)[C@@H]12` has a DC50 of 75 µg/mL (≈ 124 µM). For `C=C1CCC[C@]2(C)CC[C@@H](C(C)C)[C@H](OC(=O)/C=C/c3ccc(OC)cc3)[C@@H]12`, the DC50 was 48 µg/mL (≈ 125 µM). `C=C1CCC[C@]2(C)CC[C@@H](C(C)C)[C@H](OC(=O)/C=C/c3ccc(OC(=O)CCCCCCC/C=C\CCCCCC)cc3)[C@@H]12` gave a DC50 of 52 µg/mL (≈ 86 µM). In the case of `C=C1CCC[C@]2(C)CC[C@@H](C(C)C)[C@H](OC(=O)/C=C\c3ccc(O)cc3)[C@@H]12`, the DC50 is reported as > 200 µg/mL. With `C=C1CCC[C@]2(C)CC[C@@H](C(C)C)[C@H](OC(=O)/C=C\c3ccc(OC(C)=O)cc3)[C@@H]12` the DC50 was > 200 µg/mL. `C=C1CCC[C@]2(C)CC[C@@H](C(C)C)[C@H](OC(=O)/C=C/c3ccc(O)cc3)[C@@H]12` was tested, and the DC50 was > 200 µg/mL. Compound `C=C1CCC[C@]2(C)CC[C@@H](C(C)C)[C@H](OC(=O)/C=C/c3ccc(OC(=O)CCCCCCCCCCCCCCCCC)cc3)[C@@H]12` has a DC50 of 110 µg/mL (≈ 173 µM).
